Laboratory results as given in patent publication US8637702B2, “Derivatives of N-hydroxybenzamide for treating HIV infections” (Italfarmaco S.p.A., priority 2009, dated 2014).

Tests used:
HDAC10 = target: T1, HDAC10 (Homo sapiens, UniProt Q969S8); test: Inhibition of histone deacetylase isoforms, HDAC10
T1 sequence (Q969S8 1-669): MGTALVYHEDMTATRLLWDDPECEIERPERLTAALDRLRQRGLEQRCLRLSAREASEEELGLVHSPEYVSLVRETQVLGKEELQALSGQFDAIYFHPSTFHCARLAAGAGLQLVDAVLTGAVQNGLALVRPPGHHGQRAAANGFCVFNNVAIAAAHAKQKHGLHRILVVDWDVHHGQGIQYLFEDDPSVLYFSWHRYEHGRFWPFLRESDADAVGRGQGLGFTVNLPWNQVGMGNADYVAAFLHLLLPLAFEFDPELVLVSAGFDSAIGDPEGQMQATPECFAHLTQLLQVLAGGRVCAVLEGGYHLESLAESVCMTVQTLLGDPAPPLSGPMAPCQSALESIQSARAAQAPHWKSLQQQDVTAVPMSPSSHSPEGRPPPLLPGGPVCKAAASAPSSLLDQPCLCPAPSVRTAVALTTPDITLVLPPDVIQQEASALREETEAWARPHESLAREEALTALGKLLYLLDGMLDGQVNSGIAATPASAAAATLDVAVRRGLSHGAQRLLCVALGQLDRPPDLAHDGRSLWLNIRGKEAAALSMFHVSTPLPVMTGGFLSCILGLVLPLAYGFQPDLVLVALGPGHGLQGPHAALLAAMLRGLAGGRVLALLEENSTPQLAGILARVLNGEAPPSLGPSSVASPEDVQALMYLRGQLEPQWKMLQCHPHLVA
Description: (§1) Recombinant human enzymes were acquired from BPS Biosciences (CA, USA). Isoforms of Class I HDAC1, 2, 3; HDAC6, 10 of Class IIb and Class IV HDAC11 were tested using the Fluor-de-Lys fluorogenic synthetic substrate (Enzo Life Sciences, Plymouth Meeting, Pa.). […] Each inhibitor was dissolved in DMSO and then further diluted in an assay buffer. […] The assays were performed by pre-incubating each enzyme with the inhibitors for 15 minutes at 37° C. The reaction was started by adding the substrate at 37° C. and allowed to proceed for 60 minutes. The fluorescent signal was generated by adding 50 μL of a twice concentrated developer solution 2 (Enzo) containing trichostatin A 4 μM.

HDAC11 = target: T2, HDAC11 (Homo sapiens, UniProt Q96DB2); test: Inhibition of histone deacetylase isoforms, HDAC11
T2 sequence (Q96DB2 1-347): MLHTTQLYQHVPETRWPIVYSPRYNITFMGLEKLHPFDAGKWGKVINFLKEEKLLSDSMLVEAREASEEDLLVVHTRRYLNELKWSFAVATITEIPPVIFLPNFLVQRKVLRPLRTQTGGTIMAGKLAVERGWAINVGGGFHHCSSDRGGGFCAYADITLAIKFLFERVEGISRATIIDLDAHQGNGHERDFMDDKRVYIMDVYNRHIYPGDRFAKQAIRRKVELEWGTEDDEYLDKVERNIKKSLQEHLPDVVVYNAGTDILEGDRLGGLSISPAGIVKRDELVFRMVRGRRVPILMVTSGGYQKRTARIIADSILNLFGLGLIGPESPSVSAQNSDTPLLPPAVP
Description: as §1

HDAC1 = HDAC1 (Homo sapiens, UniProt Q13547); test: Inhibition of histone deacetylase isoforms, HDAC1
Chain of HDAC1 (Q13547 whole entry, canonical isoform): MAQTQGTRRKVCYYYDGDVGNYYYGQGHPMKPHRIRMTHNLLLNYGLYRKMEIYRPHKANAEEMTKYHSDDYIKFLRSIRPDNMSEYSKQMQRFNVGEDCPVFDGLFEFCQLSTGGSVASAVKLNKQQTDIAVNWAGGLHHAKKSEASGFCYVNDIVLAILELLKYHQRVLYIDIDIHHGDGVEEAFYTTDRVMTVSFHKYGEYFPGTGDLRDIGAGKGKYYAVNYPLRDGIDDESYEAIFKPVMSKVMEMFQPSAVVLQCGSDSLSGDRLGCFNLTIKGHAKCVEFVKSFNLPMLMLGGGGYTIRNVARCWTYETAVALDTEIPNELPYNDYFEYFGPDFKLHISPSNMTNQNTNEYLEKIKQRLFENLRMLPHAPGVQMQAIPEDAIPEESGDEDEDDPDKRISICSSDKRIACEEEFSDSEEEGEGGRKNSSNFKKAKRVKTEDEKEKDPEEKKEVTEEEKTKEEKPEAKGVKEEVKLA
Description: as §1

[1] = system: HIV-1 expression in ACH-2 cells; test: Induction of the HIV-1 expression in the ACH-2 cell line (p24); assay type: cell-based; details: 24 hours
Description: ACH2 cells were obtained through AIDS Research and Reference Reagent Program, Division of AIDS, National Institute of Allergy and Infectious Diseases, National Institutes of Health, Bethesda, Md. The cells were cultured in flasks, washed in RPMI and resuspended in RPMI/10% FCS at a concentration of 2×10^6 cells/mL. […] After 24 hours of incubation at 37° C./5% CO2, 50 μL of supernatant were removed for the cytotoxicity assay of the lactate dehydrogenase (LDH) and Triton-X-100 (0.5% vol/vol final concentration) were added to each culture. The p24 assays of the lysates were performed immediately.
p24 was measured using specific antibodies immobilized on magnetic beads as previously described [Nold M. F. et al. J. Immunol. […] The levels of p24 for each experiment without HDAC inhibitors were fixed at 1.0 and the increase values by the number of times for each experiment and each analogous were calculated.

Compound: O=C(NO)c1ccc(NC(=O)[C@H](Cc2ccc3ccccc3c2)NC(=O)c2ccccc2)cc1 [Compound g, 4-(2(S)-benzoylamino-3-naphtalen-2-yl-propionylamino)-N-hydroxy-benzamide]
- IC50 (HDAC10): 0.132 µM
- IC50 (HDAC11): 0.441 µM
- IC50 (HDAC1): 0.0547 µM
- increase of the number of times in the level of p24 with respect to control ([1]; 31 nM): 2 times
- increase of the number of times in the level of p24 with respect to control ([1]; 63 nM): 3 times
- increase of the number of times in the level of p24 with respect to control ([1]; 125 nM): 10 times
- increase of the number of times in the level of p24 with respect to control ([1]; 250 nM): 27 times
- increase of the number of times in the level of p24 with respect to control ([1]; 250 nM, listed as compound g): 30 times

Compound: O=C(NO)c1ccc(NC(=O)[C@H](Cc2ccc3ccccc3c2)NC(=O)c2ccc3c(c2)OCO3)cc1 [Compound t, benzo[1,3]dioxole-5-carboxylic acid [1(S)-(4-hydroxycarbamoyl-phenylcarbamoyl)-2-naphtalen-2-yl-ethy]-amide]
- IC50 (HDAC10): 0.276 µM
- IC50 (HDAC11): 0.336 µM
- IC50 (HDAC1): 0.0715 µM
- increase of the number of times in the level of p24 with respect to control ([1]; 31 nM): 1 times
- increase of the number of times in the level of p24 with respect to control ([1]; 63 nM): 2 times
- increase of the number of times in the level of p24 with respect to control ([1]; 125 nM): 10 times
- increase of the number of times in the level of p24 with respect to control ([1]; 250 nM): 33 times
- increase of the number of times in the level of p24 with respect to control ([1]; 250 nM, listed as compound t): 30 times
